In article PMC4920590, “GPR142 Controls Tryptophan-Induced Insulin and Incretin Hormone Secretion to Improve Glucose Metabolism” (PLoS ONE, 2016):
Read-outs that look alike come from different tables or passages of the source. Each block holds one compound with its values, some of them ahead of it.

What was measured:
human GPR142 = target: T1, human GPR142 (Homo sapiens, UniProt Q7Z601); experiment: IP-1 accumulation assay in HEK293 cells stably expressing human GPR142; format: cell-based; conditions: for EC50: IP-1 accumulation, 1 hour, read-out: HEK293-hGPR142 EC50; for HEK293-hGPR142 EC50 (Emax): activity call, tested 170 nM to 30 mM
T1 construct: expressed in transfected cells
T1 sequence (Q7Z601 1-374 isoform Q7Z601-2): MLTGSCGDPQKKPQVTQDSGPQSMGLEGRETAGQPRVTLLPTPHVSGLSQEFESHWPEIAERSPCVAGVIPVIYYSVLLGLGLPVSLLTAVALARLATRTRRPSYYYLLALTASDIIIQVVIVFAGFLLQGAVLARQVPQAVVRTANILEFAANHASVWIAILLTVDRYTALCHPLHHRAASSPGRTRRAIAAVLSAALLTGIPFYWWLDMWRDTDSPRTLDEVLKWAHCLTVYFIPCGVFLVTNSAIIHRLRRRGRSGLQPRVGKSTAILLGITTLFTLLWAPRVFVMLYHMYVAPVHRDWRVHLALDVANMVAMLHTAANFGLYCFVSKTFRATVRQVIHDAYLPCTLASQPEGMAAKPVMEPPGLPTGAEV
Procedure: (§1) HEK293 cells obtained from ATCC were used to generate cell lines stably expressing human GPR142 or mouse Gpr142 by transfecting cells with pcDNA3.1 expression vectors containing each cDNA. Cells expanded from single clones were maintained in DMEM containing 10% fetal bovine serum (FBS) and 800 μg/ml G418. Untransfected control HEK293 cells were maintained in DMEM containing 10% FBS. Cells were plated in 384 well plates at 5000 cells per well and allowed 18 hours for attachment. After addition of compounds, cells were incubated for 1 hour. IP-1 measurements were performed using an HTRF assay kit (Cisbio) according to manufacturer’s protocol using assay buffer containing 1 × HBSS (Hank’s Balanced Salt Solution, +Ca, +Mg), 0.1% bovine serum albumin (BSA), 50 mM LiCl and 20 mM HEPES (4-(2-hydroxyethyl)-1-piperazineethanesulfonic acid), pH 7.2. The reaction was stopped by addition of IP1-d2 followed by cryptate solution and the plates were incubated at 25°C for 1 hour. Fluorescence was read in an Envision instrument at 665 nm and 620 nm. The ratio of 665 nm/620 nm was calculated and converted to IP-1 levels using a standard curve method. The data was fit to 4-parameter fit logistics to determine EC50 values.

mouse GPR142 = target: T2, mouse GPR142 (Mus musculus, UniProt Q7TQN9); experiment: IP-1 accumulation assay in HEK293 cells stably expressing mouse Gpr142; format: cell-based
T2 sequence (Q7TQN9 67-365 limits assumed): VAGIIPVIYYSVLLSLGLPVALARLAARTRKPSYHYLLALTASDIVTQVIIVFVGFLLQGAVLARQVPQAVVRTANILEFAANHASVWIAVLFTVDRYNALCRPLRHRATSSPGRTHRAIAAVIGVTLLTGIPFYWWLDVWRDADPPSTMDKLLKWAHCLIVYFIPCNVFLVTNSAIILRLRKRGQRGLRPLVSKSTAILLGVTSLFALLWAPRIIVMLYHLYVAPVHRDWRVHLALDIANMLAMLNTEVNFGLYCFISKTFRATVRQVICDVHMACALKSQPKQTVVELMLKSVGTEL
Procedure: as §1

[1] = Plasma insulin and incretin hormone levels after oral dosing in mice; format: in vivo, mouse
Procedure: (§2) Mice were fasted overnight and allowed free access to water. […] Tail blood glucose levels were measured at indicated time points using handheld glucometers. For incretin hormone measurements, blood was collected via cardiac bleeds into EDTA-tubes containing DPP-4 inhibitor (Millipore) and protease inhibitor cocktail (Thermo Fisher). For insulin measurements during GTT, blood was collected from the tail.
Immunoassays were used to measure total GIP (Millipore, ELISA), total GLP-1, and insulin (Meso Scale Discovery). Enzymatic assays were used to measure TG, beta-hydroxybutarate (Sigma-Aldrich), and total cholesterol (Thermo Fisher). HDL-cholesterol was determined in the supernatant after removal of LDL/vLDL-cholesterol by a precipitation reagent (Sigma-Aldrich); non-HDL-cholesterol was determined by subtracting HDL from total cholesterol. Free fatty acids were measured by GC-MS.

[2] = Glucose tolerance test (IPGTT/OGTT) after oral dosing in mice; format: in vivo, mouse; conditions: p.o. 30 minutes before glucose 2 g/kg; OGTT 10 mg/kg diet-induced obese C57 mice, IPGTT 30 mg/kg
Procedure: as §2

human pancreatic islets = experiment: Insulin secretion in isolated human pancreatic islets; format: cell-based; conditions: 11 mM glucose, 1 hour, non-diabetic donor
Excerpt: Human pancreatic islets were purchased from Prodo Labs at the Scharp-Lacy Research Institute (Irvine, CA, www.prodolabs.com) through the Integrated Islet Distribution Program in accordance with internal review board (IRB) ethical guidelines for use of human tissue. Islets were isolated at Prodo Labs from human pancreata from listed cadaver organ donors that were refused for primary human pancreas transplantation or isolated islets transplantion into listed diabetic recipients. […] The next day day islets were incubated for 30 min in EBSS buffer containing 0.1% BSA and 3 mM glucose. […] Islets were cultured for 60 min at 37°C. The incubation was stopped by chilling the samples on ice. The culture media was removed and stored at -20°C until its insulin concentration was measured. Insulin was measured using a custom built immunoassay (Meso Scale Discovery).

murine pancreatic islets = experiment: Insulin secretion in isolated murine pancreatic islets (WT and Gpr142 KO); format: cell-based, mouse; conditions: 11.1 mM glucose, 1 hour
Procedure: Secretion was stopped by refrigerating the plates at 4°C for 3 minutes. Supernatant was removed from the wells and assayed for insulin levels using the MA6000 Mouse/Rat Insulin Kit (Meso Scale Discovery).

[3] = HEK293, relative efficacy normalized to maximal response of L-Tryptophan (100%), read-out: HEK293-hGPR142 Emax
[4] = 30 mg/kg p.o., normal C57 mice, fasted state and after oral glucose challenge

EC50 (human GPR142; 170 nM to 30 mM): 12 mM
HEK293-hGPR142 Emax (human GPR142; relative efficacy normalized to maximal response of L-Tryptophan (100%)): 34%
SMILES: N[C@@H](Cc1c[nH]c2ccc(O)cc12)C(=O)O [5-OH L-Tryptophan]

Emax (mouse GPR142; HEK293, relative efficacy normalized to maximal response of L-Tryptophan (100%), read-out: HEK293-mGPR142 Emax): 90%
EC50 (mouse GPR142; IP-1 accumulation, 1 hour, 0.17 nM to 30 μM, read-out: HEK293-mGPR142 EC50): 0.88 nM
Emax (human GPR142; [3]): 90%
EC50 (human GPR142; 0.17 nM to 30 μM): 7.1e-06 mM
SMILES: CCCc1c(C(=O)NCc2cncn2C)cnn1-c1ncc(C)c(-c2cccs2)n1 [Compound A, N-[(3-methylimidazol-4-yl)methyl]-1-[5-methyl-4-(2-thienyl)pyrimidin-2-yl]-5-propyl-pyrazole-4-carboxamide]
plasma insulin during glucose tolerance test ([1]; 10 mg/kg p.o., diet-induced obese C57 mice, 15 minutes after glucose challenge): increase in plasma insulin
meal induced GIP, GLP-1, and insulin levels ([1]; 30 mg/kg p.o. 30 minutes prior to oral mixed meal challenge (Ensure-plus 10 mL/kg), C57 mice): additional stimulatory effects
effects on plasma hormones and glycemia in Gpr142 KO mice ([1]; 30 mg/kg p.o., KO mice): completely absent
plasma GIP level [1, 4]: significantly increased
plasma GLP-1 level [1, 4]: significantly increased
glucose excursion during OGTT and IPGTT [2]: robust suppression of glucose excursion
insulin secretion in human primary islets (human pancreatic islets): stimulated ex vivo insulin secretion
insulin secretion in WT murine islets (murine pancreatic islets): stimulated ex vivo insulin secretion

Emax (human GPR142; [3]): 29%
EC50 (human GPR142; 170 nM to 30 mM): 3.5 mM
significant activation of GPR142 signaling at concentrations below 10 mM (human GPR142; Table 1): None
SMILES: N[C@H](Cc1c[nH]c2ccccc12)C(=O)O [D-Tryptophan]

HEK293-hGPR142 EC50 (Emax) (human GPR142): Inactive
SMILES: NCC(=O)O [Glycine]

HEK293-hGPR142 EC50 (Emax) (human GPR142): Inactive
SMILES: C[C@H](N)C(=O)O [L-Alanine]

SMILES: N=C(N)NCCC[C@H](N)C(=O)O [L-Arginine]
Emax (human GPR142; HEK293, read-out: HEK293-hGPR142 Emax): 23%
EC50 (human GPR142; 170 nM to 30 mM): > 20 mM

HEK293-hGPR142 EC50 (Emax) (human GPR142): Inactive
SMILES: NC(=O)C[C@H](N)C(=O)O [L-Asparagine]

Emax (human GPR142; [3]): 41%
EC50 (human GPR142; 170 nM to 30 mM): > 20 mM
SMILES: N[C@@H](CC(=O)O)C(=O)O [L-Aspartic Acid]

HEK293-hGPR142 EC50 (Emax) (human GPR142): Inactive
SMILES: N[C@@H](CS)C(=O)O [L-Cysteine]

SMILES: N[C@@H](CCC(=O)O)C(=O)O [L-Glutamic Acid]
HEK293-hGPR142 EC50 (Emax) (human GPR142): Inactive

HEK293-hGPR142 EC50 (Emax) (human GPR142): Inactive
SMILES: NC(=O)CC[C@H](N)C(=O)O [L-Glutamine]

HEK293-hGPR142 EC50 (Emax) (human GPR142): Inactive
SMILES: N[C@@H](Cc1c[nH]cn1)C(=O)O [L-Histidine]

HEK293-hGPR142 EC50 (Emax) (human GPR142): Inactive
SMILES: CC[C@H](C)[C@H](N)C(=O)O [L-Isoleucine]
